US9517231B2, “Methods and pharmaceutical compositions for the treatment of symptoms of anxiety and panic using beta adrenergic receptor antagonist and muscarinic receptor antagonist combinations” (priority 2014, dated 2016)
“Also recorded” adds a separate entry of the source. Counter-ions that a name gives are not always drawn. Like-named read-outs stand apart in the source and are kept apart here.

How the values were obtained:
[1] = target: muscarinic acetylcholine receptors, all five human receptor subtypes; details: cited from earlier work
[2] = oral atenolol 50 mg, oral scopolamine HBr 0.3 mg; baseline and during sauna heat; cited from earlier work
[3] = taste and mouth paresthesia of dose forms in humans
[4] = oral atenolol 50-200 mg; ~10 bpm on placebo; cited from earlier work
[5] = healthy volunteers, CO2 inhalation; cited from earlier work
[6] = cited from earlier work
[7] = liquid compositions, under or on the tongue
[8] = sublingual solid dose forms, HCl
[9] = oral 40 mg one hour prior to TSST

Structure (SMILES): CN1[C@@H]2C[C@@H](OC(=O)[C@H](CO)c3ccccc3)C[C@H]1[C@@H]1O[C@@H]12 [scopolamine]
- Ki [1]: 0.34 to 5.3 nM
- cardiovascular effects (heart rate, blood pressure) [2]: essentially no effect

Structure (SMILES): CC(C)NCC(O)COc1ccc(CC(N)=O)cc1 (stereo not drawn) [atenolol]
- mouth/tongue paresthesia ([3]; sublingual solid dose forms): neither property was observed; also recorded: lacked these undesirable characteristics; also recorded: do not produce mouth paresthesia
- taste ([3]; sublingual solid dose forms): neither property was observed; also recorded: lacked these undesirable characteristics; also recorded: do not have a taste
- cardiovascular effects (heart rate, blood pressure) [2]: reduced heart rate and blood pressure
- suppresses heart rate [4]: 23-24 bpm

Structure (SMILES): CC(C)NCC(O)COc1cccc2ccccc12 (stereo not drawn) [Propranolol HCl]
- mouth paresthesia [3, 7]: produces mouth paresthesia
- taste [3, 7]: “acidic” and “medicine” taste
- mouth/tongue paresthesia [3, 8]: delayed paresthesia of the tongue
- taste [3, 8]: “acidic” and “medicine” taste

Structure (SMILES): CC(C)NCC(O)COc1cccc2ccccc12 (stereo not drawn) [propranolol]
- heart rate [5]: significantly decreased
- psychic anxiolytic benefit [5]: did not provide
- mouth/tongue paresthesia ([3]; sublingual solid dose forms): Paresthesia
- taste ([3]; sublingual solid dose forms): undesirable taste
- BP or subjective stress ([6]; 80 mg one hour prior to TSST): did not significantly affect
- heart rate ([6]; 80 mg one hour prior to TSST): significantly reduced
- salivary cortisol ([6]; 80 mg one hour prior to TSST): increased
- salivary cortisol response ([6]; daily oral 80 mg): did not affect
- cognitive flexibility during stress [6, 9]: enhanced
- heart rate [6, 9]: significantly reduced
- systolic blood pressure [6, 9]: reduced
